Assay [1] deals with pseudovirus bearing SARS-CoV-2 S protein, delta (B.1.617.2) variant. The experiment in a line: microbe, parasite or virus in culture. The class given is cell-based. As to conditions: HEK-293T, read-out: IC50, inhibition of cell entry of pseudovirus (delta var.).
Assay [2] deals with SARS-CoV-2 spike protein pseudotyped VSV-ΔG. The experiment in a line: microbe, parasite or virus in culture. It counts as cell-based.
Setting [3] is: Severe acute respiratory syndrome coronavirus 2, Vero C1008, read-out: IC50, inhibition of VSV-ΔG pseudovirus entry.

Four molecules from paper PMC9144480 (Pharmaceuticals, 2022) can be followed below.

Where two headings read alike, the source gives them in different places.

For the molecule `CCN(CCO)CCCC(C)Nc1ccnc2cc(Cl)ccc12` (stereo not shown) [HCQ, hydroxychloroquine], the IC50 in assay [1] was 75.1 µM.
As for `CN(C)c1ccc2nc3ccc(=[N+](C)C)cc-3sc2c1` [MeBlu, methylene blue], the IC50 in assay [1] worked out at 4.7 µM; in assay [2] (setting [3]), 2.5 µM; in assay [2] (read-out: IC50, inhibition of VSV-ΔG pseudovirus entry), 2.46 µM.
Consider `Nc1c(/N=N/c2ccc([N+](=O)[O-])cc2)c(S(=O)(=O)O)cc2cc(S(=O)(=O)O)c(/N=N/c3ccccc3)c(O)c12` [NBlBk, naphthol blue black], for which, in assay [1], the IC50 came to 388 µM.
Take `O=S(=O)(O)c1ccc(N=Nc2c(O)ccc3cc(S(=O)(=O)O)ccc23)cc1` [SY(FD&C#6), sunset yellow FCF]: the IC50 was > 500 µM in assay [1] and > 250 µM in assay [2] (setting [3]).
